The target of test [1] is T1, Aurora kinase A (Homo sapiens) (UniProt O14965).
T1 sequence (whole entry): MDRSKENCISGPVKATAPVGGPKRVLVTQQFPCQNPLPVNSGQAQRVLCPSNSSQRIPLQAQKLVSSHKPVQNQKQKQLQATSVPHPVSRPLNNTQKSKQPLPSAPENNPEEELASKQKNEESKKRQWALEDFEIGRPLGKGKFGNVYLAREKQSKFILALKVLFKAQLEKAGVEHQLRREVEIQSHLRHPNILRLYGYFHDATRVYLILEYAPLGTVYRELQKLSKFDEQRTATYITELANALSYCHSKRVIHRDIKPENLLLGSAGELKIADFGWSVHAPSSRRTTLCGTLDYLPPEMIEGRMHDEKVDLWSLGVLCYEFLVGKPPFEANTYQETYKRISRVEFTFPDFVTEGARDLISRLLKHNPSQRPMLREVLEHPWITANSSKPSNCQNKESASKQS
In words: Inhibition of Aurora A (unknown origin) assessed as residual enzyme activity at 10 uM using kemptide substrate.

Test [2] deals with T2, Mitogen-activated protein kinase kinase kinase 5 (Homo sapiens, UniProt Q99683).
T2 sequence (Q99683 whole entry): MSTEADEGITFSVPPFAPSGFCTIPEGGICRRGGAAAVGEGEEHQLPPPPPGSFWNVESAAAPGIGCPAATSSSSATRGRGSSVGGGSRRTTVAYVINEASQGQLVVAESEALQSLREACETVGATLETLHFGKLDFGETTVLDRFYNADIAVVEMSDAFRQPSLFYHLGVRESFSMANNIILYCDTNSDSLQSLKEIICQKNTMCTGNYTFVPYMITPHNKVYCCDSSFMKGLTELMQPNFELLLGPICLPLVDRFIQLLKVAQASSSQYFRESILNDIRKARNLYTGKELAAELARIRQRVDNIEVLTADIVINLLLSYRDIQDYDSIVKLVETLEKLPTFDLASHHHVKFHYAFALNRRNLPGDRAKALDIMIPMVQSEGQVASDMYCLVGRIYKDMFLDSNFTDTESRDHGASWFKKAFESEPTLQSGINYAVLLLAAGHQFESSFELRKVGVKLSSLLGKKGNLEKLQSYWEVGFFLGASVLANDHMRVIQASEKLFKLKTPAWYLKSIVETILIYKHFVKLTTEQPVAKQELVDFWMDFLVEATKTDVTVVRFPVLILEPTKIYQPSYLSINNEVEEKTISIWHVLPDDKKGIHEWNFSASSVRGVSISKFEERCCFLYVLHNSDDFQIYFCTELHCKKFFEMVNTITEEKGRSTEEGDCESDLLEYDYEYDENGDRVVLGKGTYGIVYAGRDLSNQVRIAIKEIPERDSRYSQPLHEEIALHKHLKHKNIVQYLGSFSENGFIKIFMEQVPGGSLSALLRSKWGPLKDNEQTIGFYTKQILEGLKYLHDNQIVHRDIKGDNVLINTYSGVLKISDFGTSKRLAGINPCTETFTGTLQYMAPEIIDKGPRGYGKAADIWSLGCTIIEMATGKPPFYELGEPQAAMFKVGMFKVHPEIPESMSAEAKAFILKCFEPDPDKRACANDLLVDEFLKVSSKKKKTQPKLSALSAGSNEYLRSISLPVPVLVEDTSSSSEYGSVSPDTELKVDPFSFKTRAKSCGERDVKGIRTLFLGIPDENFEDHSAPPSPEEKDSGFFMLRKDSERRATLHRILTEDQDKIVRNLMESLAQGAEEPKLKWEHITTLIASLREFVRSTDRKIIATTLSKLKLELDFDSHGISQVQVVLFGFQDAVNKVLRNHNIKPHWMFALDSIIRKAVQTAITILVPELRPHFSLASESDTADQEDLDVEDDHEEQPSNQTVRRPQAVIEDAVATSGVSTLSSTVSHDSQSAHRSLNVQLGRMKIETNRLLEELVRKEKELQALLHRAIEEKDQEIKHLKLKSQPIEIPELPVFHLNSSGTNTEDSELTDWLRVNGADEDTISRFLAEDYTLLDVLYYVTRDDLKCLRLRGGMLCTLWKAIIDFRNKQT
In words: Inhibition of recombinant ASK1 catalytic subunit (unknown origin) using MBP substrate and gamma-labeled 32P ATP incubated for 20 mins by liquid scintillation counting method.

For test [3], the target named is Casein kinase II (Homo sapiens) (UniProt P67870+P68400+P19784). In words: Inhibition of CK2 (unknown origin) assessed as residual enzyme activity at 10 uM using RRRDDDSDDD substrate peptide. The class given is protein-complex assay.
In test [4] the target is Mitogen-activated protein kinase 10 (Homo sapiens) (UniProt P53779). In words: Inhibition of JNK3 (unknown origin) assessed as residual enzyme activity at 10 uM using JNK3tide substrate.
Chain of Mitogen-activated protein kinase 10 (Homo sapiens) (P53779 whole entry): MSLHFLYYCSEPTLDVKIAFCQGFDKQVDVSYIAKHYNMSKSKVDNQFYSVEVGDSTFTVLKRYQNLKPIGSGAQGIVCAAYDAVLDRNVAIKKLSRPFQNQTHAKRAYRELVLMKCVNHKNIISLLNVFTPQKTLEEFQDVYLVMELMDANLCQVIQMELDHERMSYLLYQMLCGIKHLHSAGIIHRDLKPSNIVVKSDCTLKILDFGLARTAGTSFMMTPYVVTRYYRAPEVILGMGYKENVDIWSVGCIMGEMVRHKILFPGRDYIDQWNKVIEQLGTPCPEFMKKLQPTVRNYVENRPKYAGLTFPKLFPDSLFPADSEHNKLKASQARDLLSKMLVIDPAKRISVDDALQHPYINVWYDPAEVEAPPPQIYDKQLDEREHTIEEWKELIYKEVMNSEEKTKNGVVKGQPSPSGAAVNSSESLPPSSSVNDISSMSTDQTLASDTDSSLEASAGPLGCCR
Test [5] concerns the target Angiopoietin-1 receptor (Homo sapiens) (UniProt Q02763). In words: Inhibition of Tie2 (unknown origin) assessed as residual enzyme activity at 10 uM using TK Substrate 2 (poly Glu-Tyr) substrate.
Test [6] concerns the target Fibroblast growth factor receptor 1 (Homo sapiens) (UniProt P11362). In words: Inhibition of FGFR1 (unknown origin) assessed as residual enzyme activity at 10 uM using IGF-IRtide (12 to 527) substrate.
Test [7] has as its target T3, Mitogen-activated protein kinase kinase kinase 5 (Homo sapiens) (UniProt Q99683).
T3 sequence (whole entry): T2 sequence (Q99683 whole entry)
In words: Inhibition of recombinant ASK1 catalytic subunit (unknown origin) assessed as residual enzyme activity at 10 uM using MBP substrate and gamma-labeled 32P ATP incubated for 20 mins by liquid scintillation counting method.

Broadly, the IC50 is the concentration that inhibits the measured activity by half.

Chain of Angiopoietin-1 receptor (Homo sapiens) (Q02763 whole entry): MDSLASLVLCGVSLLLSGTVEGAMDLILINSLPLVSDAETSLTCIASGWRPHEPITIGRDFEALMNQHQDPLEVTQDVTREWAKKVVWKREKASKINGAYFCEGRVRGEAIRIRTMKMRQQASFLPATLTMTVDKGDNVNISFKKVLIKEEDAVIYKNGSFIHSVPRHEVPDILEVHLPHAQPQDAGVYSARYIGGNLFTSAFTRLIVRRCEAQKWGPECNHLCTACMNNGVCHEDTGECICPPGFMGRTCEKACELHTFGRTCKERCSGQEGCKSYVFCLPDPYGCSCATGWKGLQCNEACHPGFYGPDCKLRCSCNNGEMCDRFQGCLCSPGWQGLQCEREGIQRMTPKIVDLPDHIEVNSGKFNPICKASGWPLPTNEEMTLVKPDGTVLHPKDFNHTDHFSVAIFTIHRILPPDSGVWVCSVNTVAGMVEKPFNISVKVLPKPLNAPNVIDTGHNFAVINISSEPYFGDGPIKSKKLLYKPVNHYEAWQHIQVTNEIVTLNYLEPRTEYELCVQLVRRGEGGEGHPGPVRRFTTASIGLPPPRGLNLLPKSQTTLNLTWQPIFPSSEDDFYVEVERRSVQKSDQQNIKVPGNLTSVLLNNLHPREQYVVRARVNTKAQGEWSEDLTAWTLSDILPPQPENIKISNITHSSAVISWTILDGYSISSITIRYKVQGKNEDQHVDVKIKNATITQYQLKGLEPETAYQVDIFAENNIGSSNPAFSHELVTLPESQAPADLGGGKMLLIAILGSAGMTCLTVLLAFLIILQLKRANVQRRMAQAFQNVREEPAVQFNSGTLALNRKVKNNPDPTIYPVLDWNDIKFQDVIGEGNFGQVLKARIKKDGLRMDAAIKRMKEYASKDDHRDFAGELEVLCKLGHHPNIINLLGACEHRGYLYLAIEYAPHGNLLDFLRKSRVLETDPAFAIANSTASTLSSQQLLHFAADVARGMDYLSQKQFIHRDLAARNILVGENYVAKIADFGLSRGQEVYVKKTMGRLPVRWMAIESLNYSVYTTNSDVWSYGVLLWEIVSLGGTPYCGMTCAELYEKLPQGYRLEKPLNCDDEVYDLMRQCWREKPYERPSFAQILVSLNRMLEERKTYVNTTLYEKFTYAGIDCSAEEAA
Chain of Fibroblast growth factor receptor 1 (Homo sapiens) (P11362 22-822 limits assumed): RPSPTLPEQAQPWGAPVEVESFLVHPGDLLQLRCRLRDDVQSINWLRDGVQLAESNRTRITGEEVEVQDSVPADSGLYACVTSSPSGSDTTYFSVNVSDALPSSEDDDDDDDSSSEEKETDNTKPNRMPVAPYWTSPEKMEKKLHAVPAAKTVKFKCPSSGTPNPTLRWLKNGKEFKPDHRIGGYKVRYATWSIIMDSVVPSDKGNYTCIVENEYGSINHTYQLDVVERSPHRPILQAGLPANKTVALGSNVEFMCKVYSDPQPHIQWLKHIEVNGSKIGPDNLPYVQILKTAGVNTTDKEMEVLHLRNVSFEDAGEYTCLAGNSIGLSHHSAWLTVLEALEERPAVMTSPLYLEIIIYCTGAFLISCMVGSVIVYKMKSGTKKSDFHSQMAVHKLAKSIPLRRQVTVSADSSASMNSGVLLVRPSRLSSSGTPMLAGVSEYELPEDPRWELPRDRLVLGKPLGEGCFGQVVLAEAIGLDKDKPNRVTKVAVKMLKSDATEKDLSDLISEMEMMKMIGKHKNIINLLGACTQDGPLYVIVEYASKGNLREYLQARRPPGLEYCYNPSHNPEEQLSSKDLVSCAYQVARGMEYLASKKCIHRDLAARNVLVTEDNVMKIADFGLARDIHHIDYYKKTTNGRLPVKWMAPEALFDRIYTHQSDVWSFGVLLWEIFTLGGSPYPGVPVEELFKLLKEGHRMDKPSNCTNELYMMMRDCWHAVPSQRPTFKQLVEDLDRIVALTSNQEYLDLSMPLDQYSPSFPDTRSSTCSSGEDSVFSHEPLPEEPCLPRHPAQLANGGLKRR

Take `CCOc1ccc2nc(N3C(=O)C(O)=C(C(=O)c4ccc(C)cc4)C3c3ccc(C(C)(C)C)cc3)sc2c1` (stereo unspecified): the Activity in test [1] amounted to 52%; in test [3] it was 97.8%; in test [4] it was 100%; in test [5], 100%; in test [6] it was 40.3%; in test [7], 23.5%. Moreover, the IC50 in test [2] worked out at 2 µM.
`CCCCOc1ccc(C2C(C(=O)c3ccc4c(c3)OCCO4)=C(O)C(=O)N2c2nc3ccc(Cl)cc3s2)cc1` (stereo unspecified): the Activity in test [1] is 35.2%; in test [3], 99.3%; in test [4] it was 100%; in test [5] it was 100%; in test [6], 36.2%; in test [7], 15.8%. The IC50 in test [2] stood at 5.2 µM.
Consider `COc1ccc2nc(N3C(=O)C(O)=C(C(=O)c4ccco4)C3c3ccc(Cl)cc3)sc2c1` (stereo unspecified), for which the Activity in test [1] is 48.1%; in test [3], 73.9%; in test [4], 96.8%; in test [5] it was 66.4%; in test [6] it was 46.4%; in test [7] it was 39.1%. Also, the IC50 in test [2] was determined as 4.2 µM.

(Values after ChEMBL document CHEMBL3400130, “Identification of apoptosis signal-regulating kinase 1 (ASK1) inhibitors among the derivatives of benzothiazol-2-yl-3-hydroxy-5-phenyl-1,5-dihydro-pyrrol-2-one” (Bioorg Med Chem, 2015).)
